One may read the Km as the substrate concentration at which the rate is half of its maximum.

One test has as its target T1, beta-glucuronidase (GUS) (Homo sapiens, UniProt P08236).
T1 construct: purchased Sigma-Aldrich
T1 sequence (P08236 23-651): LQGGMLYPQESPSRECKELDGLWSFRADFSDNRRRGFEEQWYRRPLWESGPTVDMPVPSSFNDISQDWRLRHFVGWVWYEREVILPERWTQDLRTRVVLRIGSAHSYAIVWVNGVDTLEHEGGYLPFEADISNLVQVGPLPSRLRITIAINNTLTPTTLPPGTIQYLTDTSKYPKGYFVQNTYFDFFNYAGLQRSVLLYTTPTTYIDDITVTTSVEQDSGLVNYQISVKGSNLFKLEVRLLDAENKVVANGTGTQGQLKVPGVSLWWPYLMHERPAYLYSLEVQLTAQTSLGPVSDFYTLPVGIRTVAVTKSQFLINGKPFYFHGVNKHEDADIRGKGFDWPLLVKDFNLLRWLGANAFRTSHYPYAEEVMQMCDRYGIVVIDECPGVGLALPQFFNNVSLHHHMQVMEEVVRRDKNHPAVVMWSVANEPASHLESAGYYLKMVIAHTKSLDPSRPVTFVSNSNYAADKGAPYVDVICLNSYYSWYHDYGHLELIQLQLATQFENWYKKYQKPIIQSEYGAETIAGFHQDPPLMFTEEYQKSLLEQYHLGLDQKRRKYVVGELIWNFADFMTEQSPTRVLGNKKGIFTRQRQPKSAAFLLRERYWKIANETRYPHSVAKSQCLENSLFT
As to the kind of experiment: Beta-glucuronidase assay with luciferin 6'-glucuronide (luminescent) or 4-methylumbelliferyl glucuronide (fluorescent). Type of test: biochemical. The conditions noted are these: for limit-of-detection: GUS enzyme detected, luminescent vs fluorescent substrate; for luminescence, + GUS: pH 6.3, 15 minutes. The protocol: The source of the human enzyme was Sigma-Aldrich. GUS was incubated with the substrate in 50 mM MES, pH 6.3, for 15 minutes. […]

The test system of another test is luciferase. As to the kind of experiment: No-enzyme control: activity of luciferase towards the luciferin derivative (background luminescence). The settings on record: for luminescence, no GUS: 50 mM MES, pH 6.3. Here is the method: The reactions (Table 1) were assembled by first adding the water and 1 M BisTris solutions in individual 0.5 ml microfuge tubes, then adding the other components except for the GST #3 solution. Finally, the GST #3 (Figure 12) solution was added to the reactions, the resulting solution was mixed, and the time of addition noted. […]
The GST #3 addition was performed last and the solutions were mixed immediately after addition of GST #3. […] After mixing, the light produced by the solution was measured using a Turner TD 20/20 luminometer.
After assembly, the enzyme stock solutions were diluted 1:10 into 10 mM HEPES, pH 7.5 and the following additions were made to the reactions.
A 5 µl sample of the luciferol DMF solution was added to each of the reactions above and a timer was started upon the addition of the first luciferol/DMF solution to reaction 1. All reactions were kept at room temperature.
After incubating 5 minutes at room temperature, the light produced by these samples was measured using a Turner TD 20 luminometer.
To initiate the conversions, 5 µl of luciferol solution was added to reactions […], 6-9, and 11-15, and 10 µl of luciferol was added to reactions 5 and 10 and the tubes mixed after that addition. Immediately after luciferol addition to reaction 1, a timer was started and the time of luciferol addition to the other tubes noted. After mixing, reaction 11-15 were placed at 37°C.
After incubating 10 minutes at room temperature, the light produced by these samples was read using a Turner TD 20 luminometer (Table 18).
To initiate Step 1, 45 µl of enzyme and buffer were added to each well.
Solution A and Solution B are components of the NADPH Regeneration System (V9510, Promega Corp., Madison WI). […] Solution B contains 40 units/ml glucose-6-phosphate dehydrogenase in 5 mM citrate pH 5.5.

In test [1] the test system is calf intestinal alkaline phosphatase. As to the kind of experiment: Luminescent alkaline phosphatase assay with AP 4, luciferase and ATP. The class given is biochemical. The conditions noted are these: 1 µM AP 4. Here is the method: Alkaline Phosphatase (Promega Corp. M1821) was diluted in 50 mM Tris Cl, pH 9.3, 1 mM MgCl2, 0.1 mM ZnCl2 to a concentration of 1 fmol/µl to 0.01 zeptomole/µl.
A reaction solution was assembled containing 1 µM AP 4 (Figure 69); 100 µg/ml of the thermostable luciferase, 2 mM ATP; 10 mM MgCl2; 100 µM ZnCl2 in 50 mM Tris Cl, pH 8.5. This solution was allowed to incubate for 1 hour at room temperature to reduce background light production.
Quadruplicate wells in a luminometer plate (Nunc Maxisorb plate) were given 10 µl of the diluted alkaline phosphatase stocks and 100 µl of reaction solution. The plate was incubated at room temperature for 30 minutes, then the light produced by the solutions was measured using a Veritas Luminometer.

Regarding `Cc1cc(=O)oc2cc(O[C@@H]3O[C@H](C(=O)O)[C@@H](O)[C@H](O)[C@H]3O)ccc12` [4-methylumbelliferyl glucuronide, reference compound], on beta-glucuronidase (GUS) (50 mM MES, pH 6.3), the Km amounted to 59 ± 8 µM. The limit-of-detection at beta-glucuronidase (GUS) stood at 2.01 ng/mL.
On to `O=C(O)[C@H]1CSC(c2nc3ccc(OCc4ccc(OP(=O)(O)O)cc4)cc3s2)=N1` [AP-4, 6-(4-phosphoric acid benzylether) luciferin], for which the “Avg Reading” value is 2624.5 in the test with luciferase; 2714.67 in test [1] (# AP molecules 6); 2772.5 in test [1] (# AP molecules 60); 3079.8 in test [1] (# AP molecules 600); 3185 in test [1] (# AP molecules 6,000); 5685.3 in test [1] (# AP molecules 60,000). Besides, the “Avg Reading” value is reported as 30658.5 in test [1] (# AP molecules 600,000), 274510.5 in test [1] (# AP molecules 6,000,000) and 2394497 in test [1] (# AP molecules 60,000,000). Moreover, the “light reading, Reaction 1” value came out at 2620 with luciferase; 2706 in test [1] (# AP molecules 6); 2920 in test [1] (# AP molecules 60); 3118 in test [1] (# AP molecules 600); 3189 in test [1] (# AP molecules 6,000); 5956 in test [1] (# AP molecules 60,000). Moreover, the “light reading, Reaction 1” value in test [1] (# AP molecules 600,000) turned out to be 30042; in test [1] (# AP molecules 6,000,000) it was 281115; in test [1] (# AP molecules 60,000,000), 2639163. Besides, the “light reading, Reaction 2” value with luciferase was found to be 2735; in test [1] (# AP molecules 6), 2807; in test [1] (# AP molecules 60), 2795; in test [1] (# AP molecules 600), 3051; in test [1] (# AP molecules 6,000), 3144; in test [1] (# AP molecules 60,000), 5641. For the same compound, the figures for the “light reading, Reaction 2” value in test [1] (# AP molecules 600,000), in test [1] (# AP molecules 6,000,000) and in test [1] (# AP molecules 60,000,000) were 31132, 254693 and 2283882, respectively. Also, the “light reading, Reaction 3” value with luciferase worked out at 2612; in test [1] (# AP molecules 6), 2631; in test [1] (# AP molecules 60), 2728; in test [1] (# AP molecules 600), 3345; in test [1] (# AP molecules 6,000), 3002; in test [1] (# AP molecules 60,000), 5416. Moreover, the “light reading, Reaction 3” value turned out to be 29781 in test [1] (# AP molecules 600,000), 265592 in test [1] (# AP molecules 6,000,000) and 2320675 in test [1] (# AP molecules 60,000,000). The “light reading, Reaction 4” value was 2531 in the test on luciferase; 2647 in test [1] (# AP molecules 60); 2805 in test [1] (# AP molecules 600); 3405 in test [1] (# AP molecules 6,000); 5728 in test [1] (# AP molecules 60,000); 31679 in test [1] (# AP molecules 600,000). Besides, the “light reading, Reaction 4” value in test [1] (# AP molecules 6,000,000) turned out to be 296642; in test [1] (# AP molecules 60,000,000), 2334267. Besides, the “Net Reading” value is 0 in test [1] (# AP molecules 0); 89 in test [1] (# AP molecules 6); 148 in test [1] (# AP molecules 60); 455 in test [1] (# AP molecules 600); 560 in test [1] (# AP molecules 6,000); 3060 in test [1] (# AP molecules 60,000). The “Net Reading” value stood at 28034 in test [1] (# AP molecules 600,000), 271886 in test [1] (# AP molecules 6,000,000) and 2391872 in test [1] (# AP molecules 60,000,000).
`O=C(O)[C@H]1O[C@@H](Oc2ccc3nc(C4=N[C@@H](C(=O)O)CS4)sc3c2)[C@H](O)[C@@H](O)[C@@H]1O` [Luciferin 6'-glucuronide] had a limit-of-detection on beta-glucuronidase (GUS) of 0.28 ng/mL. Also, the “signal-to-noise, luminescence” value on beta-glucuronidase (GUS) ([GUS] 4.3 ng/ml) was determined as 68; on beta-glucuronidase (GUS) ([GUS] 8.7 ng/ml), 133; on beta-glucuronidase (GUS) ([GUS] 34.7 ng/ml), 649; at beta-glucuronidase (GUS) ([GUS] 69.4 ng/ml) it was 1411; on beta-glucuronidase (GUS) ([GUS] 138.8 ng/ml), 3104; on beta-glucuronidase (GUS) ([GUS] 277.5 ng/ml) it was 7300.
For `O=C(O)[C@H]1O[C@@H](Oc2ccc3nc(C4=N[C@@H](C(=O)O)CS4)sc3c2)[C@H](O)[C@@H](O)[C@@H]1O` [drawing 190], the “luminescence, no GUS” value is 1,108 in the test with luciferase ([substrate] 3.5 uM); 5,068 in the test with luciferase ([substrate] 31.5 uM); 13,091 in the test with luciferase ([substrate] 94.4 uM); 34,127 in the test with luciferase ([substrate] 283.1 uM); 91,975 in the test with luciferase ([substrate] 849.3 uM); 209,219 in the test on luciferase ([substrate] 2548.0 uM). Besides, the “luminescence, no GUS” value in the test on luciferase ([substrate] […]) is given as 2,190. Moreover, the “luminescence, + GUS” value at beta-glucuronidase (GUS) ([substrate] 3.5 uM, 50 mM MES) is given as 46,210; at beta-glucuronidase (GUS) ([substrate] 31.5 uM, 50 mM MES), 232,533; on beta-glucuronidase (GUS) ([substrate] 94.4 uM, 50 mM MES), 423,619; on beta-glucuronidase (GUS) ([substrate] 283.1 uM, 50 mM MES), 696,778; on beta-glucuronidase (GUS) ([substrate] 849.3 uM, 50 mM MES), 994,977; on beta-glucuronidase (GUS) ([substrate] 2548.0 uM, 50 mM MES), 1,335,243. The “luminescence, + GUS” value at beta-glucuronidase (GUS) ([substrate] […], 50 mM MES) is 107,502.

For the origin of these results see patent EP1935986B1, “Luminogenic and fluorogenic compounds and methods to detect molecules or conditions” (priority 2005, dated 2006).
